Among the test systems are SR; HCC 2998; TK-10; HCT-15; U-251; A498; SNB-75; MDA-MB-435; SK-OV-3; A549; SN12C; UO-31; SF-268; 786-0; NCI/ADR-RES; SK-MEL-2; PC-3; OVCAR-8; RPMI-8226; HOP-92.
Experiment in all cases: growth of human tumour cells (NCI), 48 h

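Cultured in 96-well plates, cells were exposed to test compound for 48 hours across five concentrations. GI50 = concentration required for 50% inhibition of growth.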 Calls of active or inactive are those of the source. Cut-off read from the data, not from the text of the source: active = GI50 up to about 1.1 µM and inactive = higher. A value given as a limit tells only on which side of the number the result lay.

As for `O=P1(Oc2ccccc2)N(CCCl)CCN1c1ccccc1` (stereo not given), the GI50 in the assay on SR is 79.3 µM (inactive); in the assay on HCC 2998, > 100 µM (inactive); in the assay with TK-10 it was 81.5 µM (inactive); in the assay on HCT-15, over 100 µM; in the assay with U-251, > 100 µM (inactive); with A498, 55 µM (inactive). The GI50 with SNB-75 is 34.8 µM (inactive); in the assay with MDA-MB-435, > 100 µM (inactive); in the assay on SK-OV-3, > 100 µM (inactive); in the assay with A549 it was > 100 µM (inactive); in the assay on SN12C, > 100 µM (inactive); in the assay with UO-31, > 100 µM (inactive). Also, the GI50 was > 100 µM (inactive) in the assay on SF-268; > 100 µM (inactive) in the assay with 786-0; 83.6 µM (inactive) in the assay with NCI/ADR-RES; > 100 µM (inactive) with SK-MEL-2; > 100 µM (inactive) in the assay with PC-3; > 100 µM (inactive) in the assay with OVCAR-8. Further, the GI50 with RPMI-8226 and in the assay with HOP-92 was > 100 µM (inactive) throughout.
As for `CCOc1ccc(N/C(Cl)=C(Cl)\C(=C(\Nc2ccc(OCC)cc2)n2nnc3ccccc32)[N+](=O)[O-])cc1`, the GI50 with SR is 1.45 µM (inactive); in the assay on HCC 2998 it was 13.2 µM (inactive); in the assay with TK-10 it was 4.49 µM (inactive); in the assay with HCT-15 it was 1.91 µM; with U-251, 6.78 µM (inactive); in the assay with A498, 20.4 µM (inactive). Besides, the GI50 in the assay with SNB-75 is 18.3 µM (inactive); in the assay on MDA-MB-435, 6.95 µM (inactive); with SK-OV-3, 66.5 µM (inactive); in the assay with A549, 23.3 µM (inactive); with SN12C, 7.94 µM (inactive); in the assay with UO-31, 4.45 µM (inactive). For the same compound, the GI50 in the assay on SF-268 is 6.98 µM (inactive); in the assay with 786-0, 4.02 µM (inactive); with NCI/ADR-RES it was 15.2 µM (inactive); with SK-MEL-2, 16.7 µM (inactive); in the assay with PC-3, 7.4 µM (inactive); with OVCAR-8, 1.74 µM (inactive). Also, the GI50 with RPMI-8226 was 4.18 µM (inactive); in the assay on HOP-92, 2.25 µM (inactive).
As to `CCc1ccc(CCC(=O)O)nc1`, the GI50 in the assay on SR was > 100 µM (inactive); with HCC 2998, > 100 µM (inactive); in the assay with TK-10 it was > 100 µM (inactive); in the assay with HCT-15, over 100 µM; in the assay on U-251 it was > 100 µM (inactive); with A498 it was > 100 µM (inactive). The GI50 in the assay with SNB-75, in the assay with MDA-MB-435, in the assay with SK-OV-3, with A549, in the assay on SN12C and in the assay with UO-31 was > 100 µM (inactive) each time. Besides, the GI50 with SF-268, in the assay with 786-0, in the assay on NCI/ADR-RES, in the assay on SK-MEL-2, with PC-3 and with OVCAR-8 was > 100 µM (inactive) throughout. For the same compound, the GI50 in the assay on RPMI-8226 and in the assay on HOP-92 was > 100 µM (inactive) throughout.
Regarding `COc1cccc(/C=C2\CCC(CN(C)C)C2=O)c1` (stereo not given), the GI50 in the assay with SR was 1.69 µM (inactive); in the assay on HCC 2998, 10.8 µM (inactive); in the assay with TK-10, 10.2 µM (inactive); with HCT-15, 2.58 µM; in the assay with U-251 it was 12.3 µM (inactive); in the assay on A498 it was 16.3 µM (inactive). For the same compound, the GI50 in the assay with SNB-75 was 17 µM (inactive); in the assay on MDA-MB-435 it was 2.61 µM (inactive); in the assay on SK-OV-3, 15.7 µM (inactive); with A549, 19 µM (inactive); with SN12C it was 5.71 µM (inactive); in the assay with UO-31, 9.51 µM (inactive). Also, the GI50 is 6.07 µM (inactive) in the assay with SF-268; 3.5 µM (inactive) in the assay with 786-0; 2.42 µM (inactive) with NCI/ADR-RES; 11.8 µM (inactive) with SK-MEL-2; 12.4 µM (inactive) in the assay on PC-3; 3.08 µM (inactive) in the assay on OVCAR-8. Moreover, the GI50 in the assay on RPMI-8226 is 0.995 µM (active); in the assay on HOP-92 it was 13.7 µM (inactive).
As for `CC(C)NC(=O)OCc1c(COC(=O)NC(C)C)c(-c2ccc(Cl)c(Cl)c2)n2c1CCC2`, the GI50 in the assay on SR was 6.37 µM (inactive); with HCC 2998, 43.6 µM (inactive); in the assay with TK-10, 41.7 µM (inactive); in the assay with HCT-15, 52.7 µM; in the assay on U-251 it was 51.3 µM (inactive); in the assay with A498, 34 µM (inactive). Also, the GI50 is 39.4 µM (inactive) in the assay with SNB-75; > 100 µM (inactive) in the assay on MDA-MB-435; 61.4 µM (inactive) in the assay with SK-OV-3; 21.1 µM (inactive) with A549; 49.4 µM (inactive) in the assay with SN12C; 45 µM (inactive) in the assay with UO-31. Also, the GI50 in the assay on SF-268 is 43.5 µM (inactive); with 786-0, 20.7 µM (inactive); in the assay on NCI/ADR-RES, > 89.7 µM (inactive); in the assay with SK-MEL-2 it was 44.2 µM (inactive); in the assay with PC-3, > 80.7 µM (inactive); in the assay with OVCAR-8, 46.6 µM (inactive). Besides, the GI50 is 17.9 µM (inactive) with RPMI-8226 and 29.4 µM (inactive) in the assay on HOP-92.
For `O=C(/C=C/c1ccc(O)c(O)c1)c1ccc(O)cc1O` [BUTEIN], the GI50 with SR was 7.1 µM (inactive); in the assay on HCC 2998 it was 17.1 µM (inactive); in the assay with TK-10, 19.4 µM (inactive); in the assay with HCT-15 it was 16.3 µM; with U-251 it was 9.25 µM (inactive); with A498 it was 17.7 µM (inactive). Further, the GI50 was 11.1 µM (inactive) in the assay on SNB-75; 9.08 µM (inactive) in the assay on MDA-MB-435; 15.7 µM (inactive) in the assay on SK-OV-3; 25 µM (inactive) with A549; 14.5 µM (inactive) with SN12C; 14 µM (inactive) in the assay with UO-31. In addition, the GI50 with SF-268 was 14.8 µM (inactive); in the assay with 786-0 it was 12 µM (inactive); with NCI/ADR-RES it was 17.4 µM (inactive); with SK-MEL-2, 14.9 µM (inactive); in the assay on PC-3, 19.6 µM (inactive); with OVCAR-8 it was 17.9 µM (inactive). Also, the figures for the GI50 with RPMI-8226 and in the assay with HOP-92 were 10.5 µM (inactive) and 15.7 µM (inactive), respectively.
For `CN(C)C(=S)Oc1ccc2ccc(=O)oc2c1`, the GI50 with SR was > 100 µM (inactive); in the assay on HCC 2998, > 100 µM (inactive); in the assay with TK-10, > 100 µM (inactive); with HCT-15, over 100 µM; with U-251, > 100 µM (inactive); with A498, > 100 µM (inactive). Also, the GI50 in the assay on SNB-75, in the assay with MDA-MB-435, with SK-OV-3, in the assay with A549, with SN12C and in the assay on UO-31 was > 100 µM (inactive) throughout. For the same compound, the GI50 in the assay on SF-268, with 786-0, with NCI/ADR-RES, in the assay with SK-MEL-2, in the assay on PC-3 and with OVCAR-8 was > 100 µM (inactive) throughout. The GI50 in the assay on RPMI-8226 and with HOP-92 was > 100 µM (inactive) throughout.
For the compound `CC1(C)CCC2=C(O1)/C(=N\Nc1ccc(F)cc1)c1ccccc1C2=O`, the GI50 is 21.9 µM (inactive) in the assay on SR; 21.9 µM (inactive) with HCC 2998; 38.9 µM (inactive) with TK-10; 43.6 µM in the assay on HCT-15; 31.5 µM (inactive) with U-251; 30.3 µM (inactive) in the assay on A498. For the same compound, the GI50 in the assay with SNB-75 is 22.2 µM (inactive); in the assay with MDA-MB-435 it was 18.1 µM (inactive); in the assay with SK-OV-3, 54.7 µM (inactive); in the assay with A549 it was 16.1 µM (inactive); with SN12C, 32.3 µM (inactive); in the assay on UO-31, 38.2 µM (inactive). Moreover, the GI50 was 52.1 µM (inactive) in the assay on SF-268; 32.4 µM (inactive) with 786-0; 71.8 µM (inactive) in the assay on NCI/ADR-RES; 32.3 µM (inactive) in the assay with SK-MEL-2; 34.8 µM (inactive) in the assay on PC-3; 41.8 µM (inactive) in the assay on OVCAR-8. Further, the GI50 is 40.4 µM (inactive) in the assay with RPMI-8226 and 39.5 µM (inactive) with HOP-92.
For `C=CC(OC(C)=O)c1ccc(OC(=O)C(C)C)c(OC)c1` (stereo not given), the GI50 is 2.49 µM (inactive) with SR; 11.2 µM (inactive) with HCC 2998; 5.04 µM (inactive) in the assay with TK-10; 4.98 µM in the assay on HCT-15; 2.39 µM (inactive) in the assay with U-251; 17.2 µM (inactive) in the assay with A498. In addition, the GI50 in the assay on SNB-75 is 4.86 µM (inactive); with MDA-MB-435, 5.73 µM (inactive); in the assay on SK-OV-3, 16.6 µM (inactive); in the assay on A549, 18.8 µM (inactive); with SN12C it was 3.63 µM (inactive); in the assay on UO-31, 3.44 µM (inactive). For the same compound, the GI50 was 7.8 µM (inactive) with SF-268; 1.99 µM (inactive) in the assay on 786-0; 10.2 µM (inactive) in the assay with NCI/ADR-RES; 4.48 µM (inactive) in the assay with SK-MEL-2; 5.19 µM (inactive) in the assay with PC-3; 4.81 µM (inactive) in the assay with OVCAR-8. Also, the GI50 with RPMI-8226 is 1.82 µM (inactive); in the assay with HOP-92 it was 5.93 µM (inactive).
With `O=C1C=C(NCC(c2ccccc2)c2ccccc2)C(=O)c2ncccc21`, the GI50 was 1.63 µM (inactive) in the assay on SR; 0.785 µM (active) in the assay with HCC 2998; 17 µM (inactive) in the assay on TK-10; 0.504 µM in the assay on HCT-15; 2.05 µM (inactive) in the assay on U-251; 2.24 µM (inactive) in the assay on A498. Besides, the GI50 in the assay on SNB-75 was 0.507 µM (active); in the assay with MDA-MB-435, 1.35 µM (inactive); in the assay on SK-OV-3, 7.33 µM (inactive); in the assay with A549, 0.668 µM (active); in the assay with SN12C, 2.1 µM (inactive); with UO-31, 1.11 µM (active). Further, the GI50 in the assay on SF-268 was 2.53 µM (inactive); in the assay with 786-0, 2.88 µM (inactive); with NCI/ADR-RES, 2.49 µM (inactive); in the assay on SK-MEL-2, 2.28 µM (inactive); in the assay on PC-3, 1.75 µM (inactive); in the assay on OVCAR-8 it was 2.39 µM (inactive). Also, the GI50 was 1.72 µM (inactive) in the assay with RPMI-8226 and 2.26 µM (inactive) with HOP-92.
